Source: patent US20070212705A1, “P[…]-D CARBOX[…], EXPRESSION AND ACTIVITY” (priority 2005, published 2007)

Tests used:
PA LDC = target: T1, PA LDC (Pseudomonas aeruginosa, UniProt Q9HTZ1); assay: LDC assay (tetrapeptide Lys cleavage, Amplex Red detection of D-Ala) with purified PA LDC; assay type: biochemical; settings: 10 minutes preincubation at room temperature before tetrapeptide substrate, read-out: IC50, inhibition of PA LDC
T1 construct: hexahistidine (pET14b N-terminal leader) (N); made in house; host or cells: E. coli BL21 (plasmid pPALDC1, pET14b)
T1 sequence (Q9HTZ1 whole entry): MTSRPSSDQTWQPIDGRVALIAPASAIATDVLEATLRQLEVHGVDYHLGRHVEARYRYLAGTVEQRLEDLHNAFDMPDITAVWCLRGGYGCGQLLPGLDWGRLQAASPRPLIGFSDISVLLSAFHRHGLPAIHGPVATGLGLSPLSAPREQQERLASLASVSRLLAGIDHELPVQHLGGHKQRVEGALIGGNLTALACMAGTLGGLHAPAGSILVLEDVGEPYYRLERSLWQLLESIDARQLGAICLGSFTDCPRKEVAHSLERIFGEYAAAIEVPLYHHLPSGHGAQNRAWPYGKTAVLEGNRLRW
Experimental: (§1) The assay consists of two parts: (i) cleavage of peptide substrate by LDC enzyme, and (ii) detection of the D-Ala cleavage product using Amplex Red. Conditions for E. coli LDC cleavage were established using a modification of conditions presented by Templin et al. (1999). The cleavage assay was assembled in black 96 half area flat bottom plates (Costar, 3694) (Corning Life Sciences, Acton, Mass.) and consisted of LDC at the indicated concentration in 30 μl (microliters) of 100 mM (milliMolar) Tris-HCl pH 8.5 containing 25 μg/ml of bovine serum albumin (B4287 Sigma, St. Louis, Mo.). “Tetrapeptide Lys” substrate L-Ala-γ-D-Glu-L-Lys-D-Ala was synthesized by SynPep, Inc. (Dublin, Calif.). […] Inhibitor compounds were added to the enzyme in 2 μl of 30% dimethyl sulfoxide and incubated for 10 minutes at room temperature, prior to the addition of tetrapeptide. The negative control received 2 μl of 30% dimethyl sulfoxide alone without any compound.
(§2) The principle of the detection system is oxidation of D-Ala by the enzyme D-amino acid oxidase to produces hydrogen peroxide. […] The detection reaction was incubated for 30 minutes at 37° C., and the plates were read on a SpectraMax Gemini (excitation 530 nm, emission 590 nm) (Molecular Devices, Sunnyvale, Calif.). […]

E. coli LDC = E. coli LDC (Escherichia coli, UniProt P76008); assay: LDC assay (tetrapeptide cleavage, Amplex Red detection) with E. coli LDC; assay type: biochemical
Chain of E. coli LDC (P76008 whole entry): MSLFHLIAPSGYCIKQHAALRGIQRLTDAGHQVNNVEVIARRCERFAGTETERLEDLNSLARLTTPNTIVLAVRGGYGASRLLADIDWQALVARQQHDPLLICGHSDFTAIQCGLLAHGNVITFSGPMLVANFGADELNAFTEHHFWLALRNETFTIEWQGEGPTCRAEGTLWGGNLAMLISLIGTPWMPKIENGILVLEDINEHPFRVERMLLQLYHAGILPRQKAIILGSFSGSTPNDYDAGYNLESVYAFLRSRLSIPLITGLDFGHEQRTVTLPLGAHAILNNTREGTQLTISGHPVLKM
Experimental: as §1, §2

LDC = LDC (Escherichia coli, UniProt P76008); settings: Templin et al., 1999; cited from earlier work
Chain of LDC (P76008 whole entry): as above

Compound	IC50 (PA LDC)	IC50 (E. coli LDC)	Inhibition of LDC (LDC)
O=C(Sc1nc2ccccc2nc1SC(=O)c1cc2ccccc2o1)c1cc2ccccc2o1 [2-Benzofurancarbothioic acid, S,S′-2,3-quinoxalinediyl ester]	0.1 µM	1.4 µM	–
O=C(O)C=CC(=O)c1ccc2c(c1)NC(=O)CO2 [3,4-dihydro-g,3-dioxo-2H-1,4-Benzoxazine-6-crotonic acid]	170 µM	12 µM	–
N[C@H](CCOc1ccc(/C(=N/O)C(=O)N[C@H]2CN([C@@H](C(=O)O)c3ccc(O)cc3)C2=O)cc1)C(=O)O [Nocardicin A]	–	–	inhibited
